In US5756491A, “Antiviral cobalt-organic compounds” (priority 1991, dated 1998):

Assays:
HSV-1 McKrae Strain = test: Direct virucidal efficacy against HSV-1 on HFF monolayers; assay type: cell-based
[1] = test system: human foreskin fibroblast (HFF) cell monolayers; test: Toxicity effects controls: sham-inoculated compound-treated HFF monolayers; assay type: cell-based; further: key: +: toxic; -: no toxicity; ±: mild toxicity; T: toxicity effects interfered with CPE rating
Excerpt: With sufficient stirring, all the compounds completely dissolved.
In the tables, the symbols have the meaning indicated: […]

HFF cells [2] = test: Cell proliferation assay; assay type: cell-based, human; conditions: rapidly growing cells
Procedure: Twenty-four hours prior to assay, HFF cells are seeded in 6-well plates at a concentration of 2.5×10^4 cells per well in MEM containing 10% FBS. On the day of the assay, drugs are diluted serially in MEM containing 10% FBS at increments of 1:5 covering a range from 100 μg/ml to 0.03 μg/ml. […] The media from the wells is then aspirated and 2 ml of each drug concentration is then added to each well. The cells are then incubated in a Co2 incubator at 37° C. for 72 h. At the end of this time, the media-drug solution is removed and the cells washed. […] The cell-media mixture is then pipetted up and down vigorously to break up the cell suspension and 0.2 ml of the mixture is added to 9.8 ml of Isoton III and counted using a Coulter Counter. Each sample is counted three times with three replicate wells per sample.

RE strain HSV-1 = test: HSV-1 recovery from tear film, cornea and trigeminal ganglia of treated rabbits; assay type: in vivo, NZW rabbit
Excerpt: The specified number of NZW rabbits (1.5-2.0 kg) were used. Animals were received at least two days prior to inoculation to allow them to accommodate to the conditions in the vivarium facility. This conditioning of the animals prior to inoculation minimizes animal variability. After the accommodation, the animals received a slit-lamp examination to exclude any animals with pre-existing anterior segment ocular defects. Animals were bi-laterally inoculated by intrastromal injection of 10^5 PFU RE strain HSV-1. The animals were then replaced individually into cages.
[…] This was carried out by obtaining tear film by swabbing the lower and upper conjunctival sacs and retaining the swab in the nasal fornix for 10 seconds. The swabs were eluted individually in HBSS. 50 μl aliquots of the virus-HBSS eluate were absorbed under confluent HFF cell monolayers for 5 minutes. The monolayers were hydrated with MEM, incubated at 37° C. and observed daily for 1 to 2 weeks to detect developing cytopathology consistent with HSV infection (HSV CPE).
On day 10 PI, the animals were sacrificed, the corneal epithelium was scraped from the eyes and epithelial and corneal stromal cultures were preformed on HFF cell monolayers. The separation of epithelial virus from deeper stromal virus infection allows for analysis of HSV in these distinct corneal layers. Corneal epithelial and stromal co-cultures were evaluated daily by inverted light microscopy.
At sacrifice, trigeminal ganglia were removed, washed in HBSS, minced and floated over duplicate HFF cell monolayers. The cell co-cultures were monitored by inverted light microscopy for 2 weeks. Negative cultures were blind passaged twice at 7 day intervals. Detection of HSV CPE in the whole-cell co-cultures was scored either positive or negative. HSV recovery from inventive compound-treated, TFT-treated and placebo-treated trigeminal ganglia was compared and differences in recovery rates analyzed.
On day 7 PI, the animals were sacrificed, the corneal epithelium was scraped from the eyes and epithelial and corneal stromal cultures were performed on HFF cell monolayers. The separation of epithelial virus from deeper stromal virus infection allows for analysis of HSV in these distinct corneal layers. Corneal epithelial and stromal co-cultures were evaluated daily by inverted light microscopy.

HFF cells [3] = test: MTT assay for cell cytotoxicity; assay type: cell-based, human; conditions: stationary cells
Procedure: Twenty-four hours prior to assay, HFF cells are plated into 96 well plates at a concentration of […] cells per well. After 24 h, the media is aspirated and […] of drug is added to the first row of wells and then diluted serially 1:5 using the automated Cetus Liquid Handling System in a manner similar to that used in the CPE assay. The plates are then incubated in a CO2 incubator at 37° C. for seven days. At this time, each well receives 50 microliters of […] solution of MTT in Dulbecco's Phosphate Buffered Saline. The plates are then incubated for an additional four hours. At this time, the media is removed and replaced with 100 μl of 0.04N hydrochloric acid in isopropanol. After shaking briefly, the plates are then read on a plate reader at 550 nm.

HFF cells [4] = test: Neutral red uptake toxicity; assay type: cell-based, human; conditions: stationary cells

For CC1=CC(C)=[N+]2CC[N+]3=C(C)C=C(C)[O][Co-3]23([NH3+])([NH3+])[O]1.[Cl-] [Compound 23, reference compound], the “virucidal efficacy (HSV-1 titer)” value (HSV-1 McKrae Strain; Experiment 1 (Table 2), 24 h PI, 0.001 mg/ml) was 10^5 PFU/ml, the “virucidal efficacy (HSV-1 titer)” value (HSV-1 McKrae Strain; Experiment 1 (Table 2), 24 h PI, 0.1 mg/ml) was 10^1 PFU/ml and the “virucidal efficacy (HSV-1 titer)” value (HSV-1 McKrae Strain; Experiment 1 (Table 2), 24 h PI, 1 mg/ml) was 0 PFU/ml. The “virucidal efficacy (HSV-1 titer)” value (HSV-1 McKrae Strain; Experiment 1 (Table 2), 24 h PI, 10 mg/ml) was 0 PFU/ml, the “virucidal efficacy (HSV-1 titer)” value (HSV-1 McKrae Strain; Experiment 1 (Table 2), 24 h PI, .01 mg/ml) was 10^3 PFU/ml and the “virucidal efficacy (HSV-1 titer)” value (HSV-1 McKrae Strain; Experiment 1 (Table 2), 48 h PI, 0.1 mg/ml) was 10^5 PFU/ml. The “virucidal efficacy (HSV-1 titer)” value (HSV-1 McKrae Strain; Experiment 1 (Table 2), 48 h PI, 1 mg/ml) was 10^5 PFU/ml, the “virucidal efficacy (HSV-1 titer)” value (HSV-1 McKrae Strain; Experiment 1 (Table 2), 48 h PI, 10 mg/ml) was “O/T” and the “effective virucidal concentration IC90” value (HSV-1 McKrae Strain; Experiment 1 (Table 3), HSV-1) was 100 µg/mL. For the same molecule, the “virucidal efficacy (HSV-1 titer)” value (HSV-1 McKrae Strain; Experiment 2 (Table 5), 24 h PI, 0.001 mg/ml) was 10^3 PFU/ml, the “virucidal efficacy (HSV-1 titer)” value (HSV-1 McKrae Strain; Experiment 2 (Table 5), 24 h PI, 0.01 mg/ml) was 10^2 PFU/ml and the “virucidal efficacy (HSV-1 titer)” value (HSV-1 McKrae Strain; Experiment 2 (Table 5), 24 h PI, 0.1 mg/ml) was 10^1 PFU/ml. For the same molecule, the “virucidal efficacy (HSV-1 titer)” value (HSV-1 McKrae Strain; Experiment 2 (Table 5), 24 h PI, 1 mg/ml) was 0 PFU/ml, the “virucidal efficacy (HSV-1 titer)” value (HSV-1 McKrae Strain; Experiment 2 (Table 5), 24 h PI, 10 mg/ml) was 0 PFU/ml and the “virucidal efficacy (HSV-1 titer)” value (HSV-1 McKrae Strain; Experiment 2 (Table 5), 48 h PI, 0.1 mg/ml) was 10^5 PFU/ml. For the same molecule, the “virucidal efficacy (HSV-1 titer)” value (HSV-1 McKrae Strain; Experiment 2 (Table 5), 48 h PI, 1 mg/ml) was 0 PFU/ml, the “virucidal efficacy (HSV-1 titer)” value (HSV-1 McKrae Strain; Experiment 2 (Table 5), 48 h PI, 10 mg/ml) was “O/T” and the “virucidal efficacy (HSV-1 titer)” value (HSV-1 McKrae Strain; Experiment 3 (Table 8), 24 h PI, 0.001 mg/ml) was 10^5 PFU/ml. The “virucidal efficacy (HSV-1 titer)” value (HSV-1 McKrae Strain; Experiment 3 (Table 8), 24 h PI, 0.01 mg/ml) was 10^3 PFU/ml, the “virucidal efficacy (HSV-1 titer)” value (HSV-1 McKrae Strain; Experiment 3 (Table 8), 24 h PI, 0.1 mg/ml) was 10^1 PFU/ml and the “virucidal efficacy (HSV-1 titer)” value (HSV-1 McKrae Strain; Experiment 3 (Table 8), 24 h PI, 1 mg/ml) was 0 PFU/ml. For the same molecule, the “virucidal efficacy (HSV-1 titer)” value (HSV-1 McKrae Strain; Experiment 3 (Table 8), 48 h PI, 0.1 mg/ml) was 10^5 PFU/ml, the “virucidal efficacy (HSV-1 titer)” value (HSV-1 McKrae Strain; Experiment 3 (Table 8), 48 h PI, 1 mg/ml) was 10^5 PFU/ml and the “virucidal efficacy (HSV-1 titer)” value (HSV-1 McKrae Strain; Experiment 6 (Table 16), 24 h PI, 0.1 mg/ml) was 10^0-1 PFU/ml. For the same molecule, the “virucidal efficacy (HSV-1 titer)” value (HSV-1 McKrae Strain; Experiment 6 (Table 16), 24 h PI, 0.5 mg/ml) was 0 PFU/ml, the “virucidal efficacy (HSV-1 titer)” value (HSV-1 McKrae Strain; Experiment 6 (Table 16), 24 h PI, 1 mg/ml) was 0 PFU/ml and the “virucidal efficacy (HSV-1 titer)” value (HSV-1 McKrae Strain; Experiment 6 (Table 16), 24 h PI, 2 mg/ml) was 0 PFU/ml. For the same molecule, the “virucidal efficacy (HSV-1 titer)” value (HSV-1 McKrae Strain; Experiment 6 (Table 16), 24 h PI, 5 mg/ml) was 0 PFU/ml, the toxicity effects ([1]; Experiment 1 (Table 1), 24 h PI, 0.001 mg/ml) was “-” and the toxicity effects ([1]; Experiment 1 (Table 1), 24 h PI, 0.01 mg/ml) was “-”. The toxicity effects ([1]; Experiment 1 (Table 1), 24 h PI, 0.1 mg/ml) was “-”, the toxicity effects ([1]; Experiment 1 (Table 1), 24 h PI, 1 mg/ml) was “-” and the toxicity effects ([1]; Experiment 1 (Table 1), 48 h PI, 0.001 mg/ml) was “-”. The toxicity effects ([1]; Experiment 1 (Table 1), 48 h PI, 0.01 mg/ml) was “-”, the toxicity effects ([1]; Experiment 1 (Table 1), 48 h PI, 0.1 mg/ml) was “-” and the toxicity effects ([1]; Experiment 1 (Table 1), 48 h PI, 10 mg/ml) was “+”. The toxicity effects ([1]; Experiment 3 (Table 7), 24 h PI, 0.001 mg/ml) was “-”, the toxicity effects ([1]; Experiment 3 (Table 7), 24 h PI, 0.01 mg/ml) was “-” and the toxicity effects ([1]; Experiment 3 (Table 7), 24 h PI, 0.1 mg/ml) was “-”. The toxicity effects ([1]; Experiment 3 (Table 7), 48 h PI, 0.001 mg/ml) was “-”, the toxicity effects ([1]; Experiment 3 (Table 7), 48 h PI, 0.01 mg/ml) was “-” and the toxicity effects ([1]; Experiment 3 (Table 7), 48 h PI, 0.1 mg/ml) was “-”. For the same molecule, the toxicity effects ([1]; Experiment 6 (Table 15), 48 h, 0.001 mg/ml) was “-”, the toxicity effects ([1]; Experiment 6 (Table 15), 48 h, 0.01 mg/ml) was “-” and the toxicity effects ([1]; Experiment 6 (Table 15), 48 h, 0.1 mg/ml) was “-”. The toxicity effects ([1]; Experiment 6 (Table 15), 48 h, 0.5 mg/ml) was “-”, the toxicity effects ([1]; Experiment 6 (Table 15), 48 h, 1 mg/ml) was “-” and the “toxicity IC50, cell proliferation” value (HFF cells [2]) was 6.2 MCG/ML. The “HSV-1 recovery from corneal epithelial cultures vs other therapy groups” value (RE strain HSV-1; Example 3) was “significantly reduced”, the “HSV-1 recovery, corneal epithelium (C.E.)” value (RE strain HSV-1; Example 3 (Table 22)) was 20% and the “HSV-1 recovery, corneal stroma (C.S.)” value (RE strain HSV-1; Example 3 (Table 22)) was 50%. The “HSV-1 recovery, trigeminal ganglia (T.G.)” value (RE strain HSV-1; Example 3 (Table 22)) was 50%, the “HSV-1 recovery, tear film (positive samples of total)” value (“HSV-1 recovery, tear film” below) (RE strain HSV-1; Example 3 (Table 22), day 3 PI) was 100% and the “HSV-1 recovery, tear film” value (RE strain HSV-1; Example 3 (Table 22), day 5 PI) was 100%. The “HSV-1 recovery, tear film” value (RE strain HSV-1; Example 3 (Table 22), day 7 PI) was 80%, the “HSV-1 recovery, tear film” value (RE strain HSV-1; Example 3 (Table 22), day 9 PI) was 0% and the “recovery of HSV-1 in tear film” value (RE strain HSV-1; Example 4) was “reduced the recovery of HSV-1 in tear film”. The “HSV-1 recovery, corneal stroma” value (RE strain HSV-1; Example 5 (Table 23)) was 80%, the “HSV-1 recovery (positive cultures per total)” value (RE strain HSV-1; Example 5 (Table 23), column 1) was 0% and the “HSV-1 recovery (positive cultures per total)” value (RE strain HSV-1; Example 5 (Table 23), column 3) was 100%. The “HSV-1 recovery (positive cultures per total)” value (RE strain HSV-1; Example 5 (Table 23), column 5) was 90%, the “HSV-1 recovery (positive cultures per total)” value (RE strain HSV-1; Example 5 (Table 23), column 7) was 80% and the “toxicity IC50, MTT toxicity” value (HFF cells [3]) was over 61 MCG/ML. The “toxicity IC50, neutral red uptake” value (HFF cells [4]) was 11.5 MCG/ML.
